Data: paper PMC11661291, “Unique structural features in a deep-sea CYP51 relate to high pressure adaptation” (Research Square, 2024)

What was measured:
C. armatus CYP51 [1] = molecular target: T1, C. armatus CYP51 (Coryphaenoides armatus, UniProt Z9AQN8BZD8); assay: Inhibition of reconstituted enzymatic activity (decrease in substrate conversion in 1 h reaction); details: enzyme/inhibitor/substrate 1:50:50, 60 min, 0.5 μM P450
Protocol: (§1) The samples were preincubated for 3 min at 37 °C in a shaking water bath, the reaction was initiated by the addition of 100 μM NADPH and stopped by the extraction of sterols with ethyl acetate. The extracted sterols were dried, dissolved in 100 μL of methanol, and the products were analyzed by reversed-phase HPLC equipped with a β-RAM detector (INUS Systems) using a Nova-Pak 3.9 mm × 150 mm (4 μm) octadecylsilane (C18) HPLC column. The products were separated with an isocratic mobile phase composed of acetonitrile and methanol (4:1 (v/v)) at a flow rate of 0.75 mL/min[9]. Michaelis-Menten parameters were calculated using GraphPad Prism. The kcat and Km values for each reaction were determined by fitting the data to a Michaelis–Menten hyperbola, with the reaction rates (nmol product formed/nmol P450/min) being plotted versus total substrate concentration.

C. armatus CYP51 [2] = molecular target: T1, C. armatus CYP51; assay: Spectral titrations with sterol substrates (type I spectral response); details: for Low-to-high spin state transition in the heme iron / Change in absorbance, ΔAmax per μM P450: sterol 0.25–3 μM; for Low-to-high spin state transition in the heme iron: 22 °C; for Change in absorbance, ΔAmax per μM P450: optical pathlength 1 cm
Protocol: Equal amounts of the HPCD solution were added to the reference cuvette to correct for the solvent-induced spectral perturbations, and the difference spectra were taken in the wavelength range of 350–500 nm. The apparent spectral dissociation constants of the enzyme-substrate complex (Kd) were calculated in GraphPad Prism software by fitting the data for the substrate-induced absorbance changes Δ(A390-A423) versus substrate concentration to a one site-total binding equation (binding-saturation).

C. armatus CYP51 [3] = molecular target: T1, C. armatus CYP51; assay: Reconstituted catalytic activity, steady-state kinetic analysis of sterol 14α-demethylation; details: 0.25 μM P450, 1 μM CPR, 1 min reaction, 37 °C
Protocol: as §1

C. armatus CYP51 [4] = molecular target: T1, C. armatus CYP51; assay: Stabilizing effect of TMAO registered by CO-binding spectra
Protocol: Absorption spectra (270–700 nm) were recorded at 22 °C using a dual-beam Shimadzu UV-2600i spectrophotometer and software UVProbe2.71. The P450 concentration was determined from the Soret band absorbance in the absolute spectrum, the extinction coefficient 117 mM^−1 cm^−1 for the low-spin ferric form or 91 mM^−1 cm^−1 for the reduced (ferrous) carbon monoxide (CO) complex in the difference spectra[51].The spin state of the P450 samples was estimated from the absolute spectra using the ratio (ΔA393–470/ΔA417–470), with values of 0.35 and 2.0 corresponding to 100% low- and 100% high-spin iron, respectively.
After data collection the crystals were dissolved in phosphate buffered saline (PBS, Gibco). UV-visible absolute absorption spectra (270–700 nm) were recorded at room temperature using a single beam spectrophotometer NanoVue,4282 (CE Healthcare) (Figure S4A). CO-binding difference absorption spectra (400–500 nm) were recorded using a dual-beam Shimadzu UV-2600i spectrophotometer as follows. The CO gas was bubbled through the protein solution, which was then divided into two cuvettes serving as a blank and standard, respectively. The baseline was taken, and a few crystals of sodium dithionate were added to the sample cuvette (Figure S4B). The corresponding spectra of the original protein sample that was used for crystallization were taken for comparison.

[5] = system: CC(C)=CCC[C@@H](C)[C@H]1CC[C@@]2(C)C3=C(CC[C@]12C)[C@@]1(C)CC[C@H](O)C(C)(C)[C@@H]1CC3; assay: purified protein, by the assay type; details: other: 0.25 μM P450, 1 μM CPR, 1 min reaction, 37 °C
Protocol: as §1

[6] = system: C=C(CC[C@@H](C)C1CC[C@@]2(C)C3=C(CC[C@]12C)[C@@]1(C)CC[C@H](O)C(C)(C)C1CC3)C(C)C; assay: purified protein, by the assay type; details: other: 0.25 μM P450, 1 μM CPR, 1 min reaction, 37 °C
Protocol: as §1

[7] = system: C=C(CC[C@@H](C)[C@H]1CC[C@@]2(C)C3=C(CC[C@]12C)[C@@]1(C)CC[C@H](O)[C@@H](C)[C@@H]1CC3)C(C)C; assay: purified protein, by the assay type; details: other: 0.25 μM P450, 1 μM CPR, 1 min reaction, 37 °C
Protocol: as §1

C. armatus CYP51 [8] = molecular target: T1, C. armatus CYP51; assay: Spectral titrations with azole-based ligands
Protocol: Titrations with azole-based compounds were carried out at 0.5 μM P450 concentration in 5-cm optical path length cuvettes. Aliquots of 0.1 mM compounds dissolved in dimethyl sulfoxide (DMSO) were added to the sample cuvette, with each titration step being 0.1 μM. At each step, the corresponding volume of DMSO was added to the reference cuvette. The apparent spectral dissociation constants (Kd) were calculated in GraphPad Prism software as described for human CYP51[21].

human CYP51 [9] = molecular target: human CYP51; design: method as in PMID 27313059; details: azole ligand; read-out: apparent dissociation constant (Kd); cited from earlier work
human CYP51 [10] = system: human CYP51; design: method as in PMID 27313059; details: 50-fold molar excess of inhibitor over enzyme, 1-hour reaction; cited from earlier work

T1 sequence (Z9AQN8BZD8 6-449 limits assumed): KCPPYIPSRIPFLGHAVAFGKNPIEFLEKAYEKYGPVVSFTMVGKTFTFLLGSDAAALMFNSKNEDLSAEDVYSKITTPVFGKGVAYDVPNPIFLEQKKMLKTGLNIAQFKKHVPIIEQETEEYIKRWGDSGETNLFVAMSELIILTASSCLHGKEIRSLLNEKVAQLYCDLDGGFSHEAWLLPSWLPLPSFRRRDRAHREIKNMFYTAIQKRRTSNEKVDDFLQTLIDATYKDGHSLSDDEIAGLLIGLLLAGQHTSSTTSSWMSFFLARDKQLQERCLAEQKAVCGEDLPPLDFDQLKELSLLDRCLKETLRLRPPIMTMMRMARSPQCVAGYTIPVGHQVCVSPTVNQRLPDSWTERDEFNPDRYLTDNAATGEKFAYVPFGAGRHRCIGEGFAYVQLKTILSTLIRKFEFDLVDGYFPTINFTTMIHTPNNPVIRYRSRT

Q: For `N#Cc1ccc(COc2ccc(C#Cc3ccc(C(F)(F)[C@](O)(Cn4cnnn4)c4ccc(F)cc4F)nc3)cc2)cc1` [VT-1598], which “inhibition of C. armatus CYP51 activity” value (C. armatus CYP51 [1]) is on record?
A: did not have any inhibitory effect

Q: For `CC(C)=CCC[C@@H](C)[C@H]1CC[C@@]2(C)C3=C(CC[C@]12C)[C@@]1(C)CC[C@H](O)C(C)(C)[C@@H]1CC3` [Lanosterol], which Kd (C. armatus CYP51 [2]) is on record?
A: 770 nM

Q: And the “Low-to-high spin state transition in the heme iron” value (C. armatus CYP51 [2]; P450 2 μM)?
A: 22%

Q: What about the “Change in absorbance, ΔAmax per μM P450” value (C. armatus CYP51 [2]; P450 2 μM) of the same compound?
A: 24

Q: What about the kcat (C. armatus CYP51 [3]) of the same compound?
A: 0.797 s⁻¹

Q: Which “inhibition of C. armatus CYP51 activity” value (C. armatus CYP51 [1]) does the source give for `CC[C@@H]([C@H](C)O)n1ncn(-c2ccc(N3CCN(c4ccc(OC[C@@H]5CO[C@@](Cn6cncn6)(c6ccc(F)cc6F)C5)cc4)CC3)cc2)c1=O` [posaconazole] here?
A: did not have any inhibitory effect

Q: Which results are given for `C[N+](C)(C)[O-]` [TMAO, trimethylamine oxide]?
A: spectral response in the heme iron (C. armatus CYP51 [4]): does not cause any spectral response; P450 recovery after overnight incubation (CO-binding spectra) (C. armatus CYP51 [4]; 10 μM TMAO, overnight storage at 4 °C in PBS): 90%

Q: With “C. armatus CYP51 (Coryphaenoides armatus)” as the compound, how does the Km [5] read?
A: 8.1 µM

Q: And the kcat [5]?
A: 0.797 s⁻¹

Q: What about the kcat/Km [5] of the same compound?
A: 98300 M⁻¹ s⁻¹

Q: What about the Km [6] of the same compound?
A: 13.0 µM

Q: And the kcat [6]?
A: 1.03 s⁻¹

Q: What about the kcat/Km [6] of the same compound?
A: 80000 M⁻¹ s⁻¹

Q: What about the Km [7] of the same compound?
A: 7.9 µM

Q: What about the kcat [7] of the same compound?
A: 0.865 s⁻¹

Q: And the kcat/Km [7]?
A: 110000 M⁻¹ s⁻¹

Q: For `O[C@@](Cn1cnnn1)(c1ccc(F)cc1F)C(F)(F)c1ccc(-c2ccc(OCC(F)(F)F)cc2)cn1` [oteseconazole], which “inhibition of C. armatus CYP51 activity” value (C. armatus CYP51 [1]) is on record?
A: did not have any inhibitory effect

Q: For `C[C@@H](c1ncncc1F)[C@](O)(Cn1cncn1)c1ccc(F)cc1F` [voriconazole], which “inhibition of C. armatus CYP51 activity” value (C. armatus CYP51 [1]) is on record?
A: did not have any inhibitory effect

Q: What about the Kd (C. armatus CYP51 [8]) of the same compound?
A: 610 nM

Q: What about the Kd (human CYP51 [9]) of the same compound?
A: 2530 nM

Q: Which “inhibition of C. armatus CYP51 activity” value (C. armatus CYP51 [1]) does the source give for `C[C@@H](c1nc(-c2ccc(C#N)cc2)cs1)[C@](O)(Cn1cncn1)c1cc(F)ccc1F` [isavuconazole] here?
A: did not have any inhibitory effect

Q: With `CC(=O)N1CCN(c2ccc(OCC3COC(Cn4ccnc4)(c4ccc(Cl)cc4Cl)O3)cc2)CC1` (stereo not drawn) [ketoconazole] as the compound, how does the Kd (C. armatus CYP51 [8]) read?
A: 10 nM

Q: And the Kd (human CYP51 [9])?
A: 70 nM

Q: What about the “lanosterol converted in presence of inhibitor” value (human CYP51 [10]) of the same compound?
A: 100%

Q: Which results are given for `C=C(CC[C@@H](C)[C@H]1CC[C@@]2(C)C3=C(CC[C@]12C)[C@@]1(C)CC[C@H](O)[C@@H](C)[C@@H]1CC3)C(C)C` [Obtusifoliol]?
A: Kd (C. armatus CYP51 [2]): 560 nM; Low-to-high spin state transition in the heme iron (C. armatus CYP51 [2]; P450 2 μM): 13%; Change in absorbance, ΔAmax per μM P450 (C. armatus CYP51 [2]; P450 2 μM): 14; kcat (C. armatus CYP51 [3]): 0.865 s⁻¹

Q: With `C=C(CC[C@@H](C)C1CC[C@@]2(C)C3=C(CC[C@]12C)[C@@]1(C)CC[C@H](O)C(C)(C)C1CC3)C(C)C` (stereo partly drawn) as the compound, how does the Kd (C. armatus CYP51 [2]; read-out: Kd (apparent spectral dissociation constant), sterol substrate, P450 2 μM) read?
A: 1020 nM

Q: And the “Low-to-high spin state transition in the heme iron” value (C. armatus CYP51 [2]; P450 2 μM)?
A: 27%

Q: What about the “Change in absorbance, ΔAmax per μM P450” value (C. armatus CYP51 [2]; P450 2 μM) of the same compound?
A: 30

Q: What about the kcat (C. armatus CYP51 [3]) of the same compound?
A: 1.03 s⁻¹

Q: Which “inhibition of C. armatus CYP51 activity” value (C. armatus CYP51 [1]) does the source give for `CCC(C)n1ncn(-c2ccc(N3CCN(c4ccc(OCC5COC(Cn6cncn6)(c6ccc(Cl)cc6Cl)O5)cc4)CC3)cc2)c1=O` (stereo not drawn) [itraconazole] here?
A: did not have any inhibitory effect

Q: And the Kd (C. armatus CYP51 [8])?
A: 620 nM

Q: What about the Kd (human CYP51 [9]) of the same compound?
A: 1290 nM
